According to patent publication US6184231A, “3-substituted-4-arylquinolin-2-one derivatives as potassium channel modulators” (priority 1999, dated 2001):

Tests used:
[1] = test system: cloned mammalian (mSlo or hSlo) BK channels; experiment: BK-mediated outward current, two-electrode voltage clamp in Xenopus oocytes; format: cell-based; settings: at 20 μM; percent increase over BK current in controls; IBTX-sensitive current; at least 5 oocytes
Experimental: The ability of compounds described in the present invention to open BK channels and increase whole-cell outward (K^+) BK-mediated currents was assessed under voltage-clamp conditions by determining their ability to increase cloned mammalian (mSlo or hSlo) BK --mediated outward current heterologously expressed in Xenopus oocytes [Butler, A., et al., Science, 261: 221-224 (1993); and Dworetzky, S. I., et al., Mol. Brain Res., 27: 189-193 (1994)]. The two BK constructs employed represent nearly structurally identical homologous proteins, and have proven to be pharmacologically identical in our tests. To isolate BK current from native (background, non-BK) current, the specific and potent BK channel-blocking toxin iberiotoxin (IBTX) [Galvez, A., et al., J. Biol. Chem., 265: 11083-11090 (1990)] was employed at a supramaximal concentration (50 nM). The relative contribution of BK channels current to total outward current was determined by subtraction of the current remaining in the presence of IBTX (non-BK current) from the current profiles obtained in all other experimental conditions (control, drug, and wash). […] All compounds were tested in at least 5 oocytes and are reported at the single concentration of 20 μM; the effect of the selected compounds of Formula I on BK current was expressed as the percent of control IBTX-sensitive current and is listed in Table I. Recordings were accomplished using standard two-electrode voltage clamp techniques [Stuhmer, W., et al., Methods in Enzymology, Vol. 207: 319-339 (1992)]; voltage-clamp protocols consisted of 500-750 ms duration step depolarizations from a holding potential of -60 mV to +140 mV in 20 mV steps. The experimental media (modified Barth's solution) consisted of (in mM): NaCl (88), NaHCO3 (2.4), KCl (1.0), HEPES (10), MgSO4 (0.82), Ca(NO3)2 (0.33), CaCl2 (0.41); pH 7.5.

[2] = test system: intracavernous pressure (ICP/BP) response; experiment: in vivo model on erectile function, cavernous nerve stimulation; parameters: species or system rat; settings: 0.1-1.0 mg/kg i.v., anesthetized rats
Description: The in vivo model on erectile function is described fully in the scientific literature [Rehman, J., Chenven, E., Brink, P. Peterson, B., Wolcott, B., Wen, Y. P., Melman, A., Christ, G.: Diminished neurogenic but not pharmacological erections in the 2- to 3-month experimentally diabetic F-344 rat. Am. J. Physiol. 272: H1960-H1971, (1997)]. Briefly, rats (250-600 g) were anesthetized using sodium pentobarbital, the abdomen opened and the cavernous nerve identified. A pressure catheter was placed in the right corpus cavernosum (crus) to measure intracavernous pressure (ICP). A second catheter was introduced into the carotid artery to measure blood pressure. Test compound (0.1, 0.3 and 1 mg/kg iV.) or vehicle (PEG 400) was given via a catheter placed into the jugular vein.
Control intracavernous pressure responses were elicited by electrically stimulating the cavernous nerve via bipolar stimulating electrodes (20 Hz, 0.22 ms pulse width). Stimulus amplitude (0.2-20 mA) was adjusted to produce a submaximal intracavernous pressure response (typically 0.2 or 0.5 mA). A series of control intracavernous pressure responses were then obtained using a constant stimulus amplitude. Test compound or vehicle was then administered (200 μl i.v bolus) and the cavernous nerve was restimulated to evoke a cavernous pressure response at various times post-drug administration. […]

cortical infarct volume = experiment: permanent focal ischemia, middle cerebral artery occlusion (MCAO) model; format: in vivo, spontaneously hypertensive rat; settings: 0.003 mg/kg i.v. single bolus 2 hours after MCAO; infarct measured 24 hours after MCAO; vs vehicle-treated control
Description: To determine the ability of these compounds to reduce cell loss resulting from neuronal ischemia, a standard rodent model of permanent focal ischemia, involving occlusion of the middle cerebral artery in the spontaneously hypertensive rat (middle cerebral artery occlusion (MCAO) model) was employed [Tamura, A., et al., Journal of Cerebral Blood Flow and Metabolism, Volume 1, 53-60, (1981)].
Selected compounds have been evaluated in the focal stroke model involving permanent MCAO in the spontaneously hypertensive rat. This procedure results in a reliably large neocortical infarct volume that is measured by means of vital dye exclusion in serial slices through the brain 24 hours after MCAO. In the present test, compounds were administered using an intravenous route of administration at 2 hours after occlusion.

| SMILES | BK Current [1] | ICP/BP ratio elicited by sub-maximal stimulation of the cavernous nerve [2] | reduction of cortical infarct volume (cortical infarct volume) |
| --- | --- | --- | --- |
| COc1ccc(Cl)cc1-c1c(CO)c(=O)[nH]c2cc(C(F)(F)F)ccc12 [Example 3, 4-(5-Chloro-2-methoxyphenyl)-3-(hydroxymethyl)-7-(trifluoromethyl)-2(1H)-quinolinone] | + (+ = 100-200%) |  |  |
| COc1ccc(Cl)cc1-c1c(C=O)c(=O)[nH]c2ccc(C(F)(F)F)cc12 [Example 4, 4-(5-Chloro-2-methoxyphenyl)-1,2-dihydro-2-oxo-6-(trifluoromethyl)-3-quinolinecarboxaldehyde] | + (+ = 100-200%) |  |  |
| COc1ccc(Cl)cc1-c1c(CCCO)c(=O)[nH]c2ccc(C(F)(F)F)cc12 [Example 8, 4-(5-Chloro-2-methoxyphenyl)-3-(3-hydroxypropyl)-6-(trifluoromethyl)-2(1H)-quinolinone] | ++ (++ = >200%) |  |  |
| O=c1[nH]c2ccc(C(F)(F)F)cc2c(-c2cc(Cl)ccc2O)c1CO [Example 9, 4-(5-Chloro-2-hydroxyphenyl)-3-(hydroxymethyl)-6-(trifluoromethyl)-2(1H)-quinolinone] | ++ (++ = >200%) |  |  |
| O=c1[nH]c2ccc(C(F)(F)F)cc2c(-c2cc(Cl)ccc2O)c1/C=C(\F)CO [Example 17, (Z)-4-(5-Chloro-2-hydroxyphenyl)-3-(2-fluoro-3-hydroxy-1-propenyl)-6-(trifluoromethyl)-2(1H)-quinolinone] | + (+ = 100-200%) |  |  |
| COc1ccc(Cl)cc1-c1c(/C=C(/F)CO)c(=O)[nH]c2ccc(C(F)(F)F)cc12 [Example 18, (E)-4-(5-Chloro-2-methoxyphenyl)-3-(2-fluoro-3-hydroxy-1-propenyl)-6-(trifluoromethyl)-2(1H)-quinolinone] | + (+ = 100-200%) |  |  |
| O=c1[nH]c2ccc(C(F)(F)F)cc2c(-c2cc(Cl)ccc2O)c1CCO [Example 20, 4-(5-Chloro-2-hydroxyphenyl)-3-(2-hydroxyethyl)-6-(trifluoromethyl)-2(1H)-quinolinone] | ++ (++ = >200%) | significant increase |  |
| COc1ccc(Cl)cc1-c1c(CCO)c(=O)[nH]c2ccc(C(F)(F)F)cc12 [Example 21, 4-(5-Chloro-2-methoxyphenyl)-3-(2-hydroxyethyl)-6-trifluoromethyl-2(1H)-quinolinone] | ++ (++ = >200%) |  | about 25% |
| O=c1[nH]c2ccc(C(F)(F)F)cc2c(-c2cc(Cl)ccc2O)c1Cc1ccc(O)cc1 [Example 30, 4-(5-Chloro-2-hydroxyphenyl)-3-[(4-hydroxyphenyl)methyl]-6-(trifluoromethyl)-2(1H)-quinolinone] | ++ (++ = >200%) |  |  |
| Nc1ccc(-c2c(-c3cc(Cl)ccc3O)c3cc(C(F)(F)F)ccc3[nH]c2=O)cc1 [Example 32, 4-(5-Chloro-2-hydroxyphenyl)-3-(4-aminophenyl)-6-(trifluoromethyl)-2(1H)-quinolinone] | ++ (++ = >200%) |  |  |
| Cc1c(-c2cc(Cl)ccc2O)c2cc(C(F)(F)F)ccc2[nH]c1=O [Example 34, 4-(5-Chloro-2-hydroxyphenyl)-3-methyl-6-(trifluoromethyl)-2(1H)-quinolinone] | ++ (++ = >200%) |  |  |
| COc1ccc(Cl)cc1-c1c(C=NO)c(=O)[nH]c2ccc(C(F)(F)F)cc12 [Example 39, 4-(5-Chloro-2-methoxyphenyl)-1,2-dihydro-2-oxo-6-(trifluoromethyl)-3-quinolinecarboxaldehyde oxime] | ++ (++ = >200%) |  |  |
